# Measured values as given in US11554124B2, “Hematopoiesis-enhancing agent” (priority 2018, dated 2023).
# Test system: bone marrow erythroblasts
# Experiment: Flow cytometry of bone marrow cells / erythroblast subsets (Ter119/CD71 double staining) of treated mice
# Type: in vivo, mouse
# Method: Wild-type mice with a genetic background of C57BL/6J were purchased from Charles River Laboratories, Inc. Mice at 8 to 14 weeks of age were used for analysis. For CLEU treatment (50 mg/body), a solution of cycloleucine (CLEU) was prepared by diluting cycloleucine (CLEU) (Sigma) in PBS (50 mg/ml), and 1 ml of the CLEU solution was administered intraperitoneally. For AKBA treatment (2 mg/body), 2 mg AKBA (Enzo Life Sciences)/20% DMSO/1 mL PBS solution was administered intraperitoneally. Vehicle without AKBA was used as a control. For measuring complete blood count of peripheral blood, peripheral blood was collected from facial veins and counted by use of an automated animal blood cell counter (microsemi LC-662). All of the experiments conducted in this study were approved by the Animal Experiment Committee of the Environmental Safety Committee of Tohoku University.
# BM cells and spleen cells were harvested in a conventional manner. Cells were stained with combinations of antibodies specific to erythroblasts and mature cells, to thereby identify them. The cells were visualized with antibody and streptavidin-peridinin chlorophyll protein-cyanin 5.5. The antibodies used in this study were as follows: anti-CD3e (145-2C11), anti-CD4 (GK1.5 or RM4.5), anti-CD8a (53-6.7), anti-Gr-1 (RB6-8C5), anti-B220 (RA3-6B2), anti-Ter-119 (TER-119), anti-CD71 (R17217 or C2). Cells were stained with […] (Sigma), and dead cells were excluded from analysis. Flow cytometric analysis and cell sorting were performed according to the manufacturer's protocol using FACS AriaII (BD), and then the obtained data were analyzed using FlowJo software (TreeStar).
# Additionally, MAT inhibitor PF9366 (PF) was administered to mice and the effect thereof was investigated. Vehicle (DMSO) (control (Ctrl)) or 10 mM PF9366 (prepared at a concentration of 40 μl/40 ml water) was provided in a drinking bottle (0 h). In addition, 80 μl of vehicle (DMSO) or 80 μl of 10 mM PF9366 dissolved in 1 ml PBS was also administered intraperitoneally at 0 h and 24 h. Analysis was carried out at Day 2 (48 h).
# MAT inhibitor 3-acetyl-11-keto-β-boswellic acid (AKBA; 2 mg/body) was intraperitoneally administered to mice at 0 and 24 hours, and analyzed after 48 hours.
# [1] = PF9366 in drinking water plus i.p. at 0 h and 24 h, Day 2 (48 h), vs DMSO
structure (smiles),measurement,setting,value
"CC(=O)O[C@@H]1CC[C@@]2(C)[C@@H](CC[C@]3(C)[C@@H]2C(=O)C=C2[C@@H]4[C@@H](C)[C@H](C)CC[C@]4(C)CC[C@]23C)[C@@]1(C)C(=O)O [AKBA, 3-acetyl-11-keto-β-boswellic acid]",maturation of erythroblasts,"AKBA 2 mg/body i.p. at 0 and 24 hours, analyzed after 48 hours, Ter119/CD71 double staining, vs vehicle",significantly up-regulated
"CN(C)CCc1nnc2cc(-c3ccccc3)c3cc(Cl)ccc3n12 [PF9366, 2-(7-chloro-5-phenyl-[1,2,4]triazolo[4,3-a]quinolin-1-yl)-N,N-dimethylethan-1-amine]",subset from which the increase of erythroblast was initiated,"PF9366 10 mM: 40 μl/40 ml drinking water plus 80 μl in 1 ml PBS i.p. at 0 h and 24 h, Day 2 (48 h), vs DMSO",initiated from subset III
same,erythroblast maturation index,[1],significant difference
same,maturation of erythroblasts,[1],significantly up-regulated
